One series relates to MDA-MB-231. Kind of series: MTT cytotoxicity assay, MDA-MB-231. Format: cell-based, human. As to conditions: Homo sapiens. The protocol:
(§1) The 96-well plate was incubated for 24 h before the MTT assay. […] Cells were cultured using DMEM supplemented with 10% foetal bovine serum, 10 µg/mL insulin and 1% penicillin–streptomycin. Reconstituted MTT (10%) was added and incubated for 2 h. Formazan crystals were dissolved by the MTT solubilizing solution after incubation. Absorbance was measured at a wavelength of 570 nm[28].

The next series has as its system MCF-7. Kind of series: MTT cytotoxicity assay, MCF-7. The series is classed as cell-based, human. As to conditions: Homo sapiens. As for the experimental part: as §1
The subject of another series is HCT-116. As to the kind of experiment: MTT cytotoxicity assay, HCT-116. As to conditions: Homo sapiens. The series is classed as cell-based, human. As for the experimental part: as §1
In general terms: Formazan colour is commonly taken as a measure of viable cells.

The subject of a further series is HepG-2. Kind of series: MTT cytotoxicity assay, HepG-2. Format: cell-based, human. As to conditions: Homo sapiens. As for the experimental part:
as §1

The target of a further series is T1, EGFR (Homo sapiens, UniProt P00533).
T1 construct: purchased Invitrogen
T1 sequence (P00533 25-1210): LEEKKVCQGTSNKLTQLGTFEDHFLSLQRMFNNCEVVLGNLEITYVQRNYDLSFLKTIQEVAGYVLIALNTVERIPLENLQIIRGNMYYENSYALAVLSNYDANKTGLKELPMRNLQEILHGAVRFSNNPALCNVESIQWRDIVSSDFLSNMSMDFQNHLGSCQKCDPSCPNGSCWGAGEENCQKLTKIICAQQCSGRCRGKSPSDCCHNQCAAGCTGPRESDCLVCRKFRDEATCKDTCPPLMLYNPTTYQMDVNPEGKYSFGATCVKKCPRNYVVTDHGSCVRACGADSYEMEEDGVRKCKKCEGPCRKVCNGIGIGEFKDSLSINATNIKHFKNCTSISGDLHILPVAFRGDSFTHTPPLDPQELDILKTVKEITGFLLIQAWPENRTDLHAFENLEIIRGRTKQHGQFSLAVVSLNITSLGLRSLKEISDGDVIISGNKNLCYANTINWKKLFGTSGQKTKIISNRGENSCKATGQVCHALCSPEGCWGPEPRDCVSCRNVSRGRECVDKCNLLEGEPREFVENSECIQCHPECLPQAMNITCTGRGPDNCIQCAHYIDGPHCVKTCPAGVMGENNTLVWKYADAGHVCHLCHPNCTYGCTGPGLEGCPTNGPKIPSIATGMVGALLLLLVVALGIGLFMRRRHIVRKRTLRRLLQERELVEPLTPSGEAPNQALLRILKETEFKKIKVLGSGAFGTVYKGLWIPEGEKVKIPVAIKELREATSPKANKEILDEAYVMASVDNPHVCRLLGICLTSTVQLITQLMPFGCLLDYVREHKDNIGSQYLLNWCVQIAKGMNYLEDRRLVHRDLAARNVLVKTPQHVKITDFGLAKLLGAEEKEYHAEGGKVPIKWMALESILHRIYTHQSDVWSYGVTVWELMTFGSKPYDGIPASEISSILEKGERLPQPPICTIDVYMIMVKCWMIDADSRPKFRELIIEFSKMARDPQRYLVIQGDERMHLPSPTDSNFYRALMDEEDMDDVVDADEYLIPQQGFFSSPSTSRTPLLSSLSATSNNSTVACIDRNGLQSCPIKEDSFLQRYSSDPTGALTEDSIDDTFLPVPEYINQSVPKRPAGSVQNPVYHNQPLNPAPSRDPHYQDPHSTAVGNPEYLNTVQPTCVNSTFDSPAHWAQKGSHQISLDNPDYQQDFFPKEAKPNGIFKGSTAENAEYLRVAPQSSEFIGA
Kind of series: EGFR kinase assay. Format: biochemical. As to conditions: EGFR-TK inhibitory assay; means ± SE, three repeats. The protocol:
An ATP solution and a kinase/peptide mixture were developed just before use. […] Then, […] of the prepared solution was added to each well. The plate was incubated for 1 h and determined by an ELISA Reader (PerkinElmer, USA). Curve fitting using Graph Pad Prism 5 was constructed. Each experiment was repeated three times. IC50 was represented as means ± SE.

Where [1] appears, read: MDA-MB-231, MTT assay, mean of three experiments ± SE, read-out: IC50 MDA-MB-231.
Setting [2] is: MCF7, MTT assay, mean of three experiments ± SE, read-out: IC50 MCF-7.
The mark [3] stands for this setting: HCT-116, MTT assay, mean of three experiments ± SE, read-out: IC50 HCT-116.
Where [4] appears, read: HepG2, MTT assay, mean of three experiments ± SE, read-out: IC50 HepG-2.

The structures appear in SMILES notation. Like-named read-outs stand apart in the source and are kept apart here.

Broadly, the IC50 is the concentration that inhibits the measured activity by half. In general, melting point refers to the temperature of the solid-liquid transition.

For `CC(Nc1nc2ccccc2c(=O)n1N)C(O)c1ccccc1` (centres unmarked) [Compound 11, 3-amino-2-(1-hydroxy-1-phenylpropan-2-ylamino)quinazolin-4(3H)-one], the melting point came to 147.5 °C. The IC50 in the series with MDA-MB-231 (setting [1]) came to 16.39 ± 0.06 µM. For the same molecule, the IC50 with MCF-7 (setting [2]) stood at 39.42 ± 0.3 µM. In addition, in the series with HCT-116 (setting [3]), the IC50 was 44.15 ± 0.22 µM. Also, the IC50 with HepG-2 (setting [4]) turned out to be 33.65 ± 0.26 µM. This molecule gave an IC50 against EGFR of 3.87 ± 0.11 µM.
Turning to `Nn1c(O)nc2ccccc2c1=O` [Compound 12, 3-Amino-2-hydroxyquinazolin-4(3H)-one], the 50% inhibitory concentration (IC50) came to 57.78 ± 0.43 µM with MDA-MB-231 (setting [1]); 66.3 ± 0.72 µM in the series with MCF-7 (setting [2]); 50.75 ± 0.29 µM in the series on HCT-116 (setting [3]); 20.5 ± 0.31 µM in the series with HepG-2 (setting [4]); 7.39 ± 0.28 µM on EGFR.
For the molecule `CCOc1nc2ccccc2c(=O)n1N` [Compound 13, 3-amino-2-ethoxyquinazolin-4(3H)-one], the IC50 is 81.43 ± 0.27 µM in the series on MDA-MB-231 (setting [1]); > 100 µM in the series on MCF-7 (setting [2]); > 100 µM with HCT-116 (setting [3]); > 100 µM with HepG-2 (setting [4]); 8.35 ± 0.32 µM at EGFR.
`O=c1c2ccccc2nc2[nH]n3c(=O)c4ccccc4nc3[nH]n12` [Compound 14, [1,2,4,5]tetrazino[3,2-b:6,5-b']diquinazoline-8,16(6H,14H)-dione] had a melting point of 294.1 °C. Also, the IC50 with MDA-MB-231 (setting [1]) was 26.55 ± 0.04 µM. Further, the IC50 with MCF-7 (setting [2]) turned out to be 30.12 ± 0.19 µM. Also, in the series on HCT-116 (setting [3]), the concentration for half-maximal inhibition (IC50) is 29.32 ± 0.16 µM. Further, in the series with HepG-2 (setting [4]), the IC50 came out at 41.25 ± 0.23 µM. Moreover, the IC50 at EGFR came out at 1.39 ± 0.27 µM.
With `CC1C(c2ccccc2)Oc2nc3ccccc3c(=O)n21` (centres unmarked) [Compound 15, 3-Methyl-2-phenyl-2H-oxazolo[2,3-b]quinazolin-5(3H)-one], the IC50 in the series with MDA-MB-231 (setting [1]) was found to be 2.41 ± 0.03 µM; in the series on MCF-7 (setting [2]), 19.67 ± 0.13 µM; in the series on HCT-116 (setting [3]), 26.51 ± 0.17 µM; in the series on HepG-2 (setting [4]), 28.5 ± 0.4 µM; on EGFR, 1.09 ± 0.12 µM.
Taken in the same sequence, the figures for `CC1C(c2ccccc2)Oc2nc3ccccc3c(=O)n2C(C)C(c2ccccc2)Oc2nc3ccccc3c(=O)n21` (centres unmarked) [Compound 17, 8,18-dimethyl-7,17-diphenyl-7,8,17,18-tetrahydro-[1,6,3,8]dioxadiazecino[2,3-b:7,8-b']diquinazoline-10,20-dione] were 5.45 ± 0.06 µM, 20.1 ± 0.27 µM, 18.4 ± 0.2 µM, 24.3 ± 0.18 µM and 1.02 ± 0.05 µM.
Regarding `CC(Nc1nc2ccccc2c(=O)n1C(C)C(O)c1ccccc1)C(O)c1ccccc1` (centres unmarked) [Compound 18, 3-(1-hydroxy-1-phenylpropan-2-yl)-2-(1-hydroxy-1-phenylpropan-2-ylamino)quinazolin-4(3H)-one], the IC50 is 62.94 ± 0.1 µM in the series on MDA-MB-231 (setting [1]); 62.59 ± 0.18 µM in the series with MCF-7 (setting [2]); 44.9 ± 0.52 µM in the series on HCT-116 (setting [3]); 50 ± 0.13 µM in the series with HepG-2 (setting [4]); 0.99 ± 0.04 µM against EGFR.
On to `C#Cc1cccc(Nc2ncnc3cc(OCCOC)c(OCCOC)cc23)c1` [Erlotinib, reference compound], for which the IC50 in the series with MDA-MB-231 (MDA-MB-231, read-out: IC50 MDA-MB-231) is 3.73 ± 0.01 µM; in the series on MCF-7 (MCF7, read-out: IC50 MCF-7), 4.48 ± 0.02 µM; in the series with HCT-116 (HCT-116, read-out: IC50 HCT-116), 2.78 ± 0.04 µM; in the series on HepG-2 (HepG2, read-out: IC50 HepG-2), 3.04 ± 0.2 µM.

The values are drawn from article PMC7781899, “Synthesis of some quinazolinones inspired from the natural alkaloid L-norephedrine as EGFR inhibitors and radiosensitizers” (Journal of Enzyme Inhibition and Medicinal Chemistry, 2020).
